In patent publication US20190070170A1, “METHOD OF S[…]-1” (Macau University of Science and Technology, priority 2017, published 2019):

Columns and labels:
[1] = test system: collagen-induced arthritis; test: Collagen-II induced arthritis (CIA) in DBA/1 mice; assay type: in vivo; conditions: CIA DBA/1 mice; MTX 10 mg/kg/week p.o.
Experimental: Female DBA/1 mice (8-9 weeks old) were purchased from Shanghai SiLaike (SLAC) Laboratory Animal Company (Shanghai, China) and fed with a chow diet and water at room temperature. Equal volume of complete Freuend's adjuvant (CFA) and Bovine Type II Collagen (CII) were mixed and emulsified using a homogenizer (13,000 rpm) on ice. On day 0, DBA/1 mice were immunized by injecting 50 μl of CII in CFA in the tail, approximately 2 cm from the base of the tail. After injection, on day 18, mice with one or more than one paw inflamed were chosen and randomly divided into model group, SIN (100 mg/kg, i.p.) treatment group and MTX (10 mg/kg/week, p.o) treatment group, the mice without immunization were used as normal control. On day 21, these chosen mice were boosted through injecting the same volume of CII in IFA same as the day 0 immunization procedure. The incidence of joint swelling in each group was recorded every two days since drug treatment. Paw thickness (at the ankle joints of the hind paws) of each mouse was obtained by using vernier caliper to record the severity of paw swelling.
Arthritis score of each paw was evaluated every two days during experiment with the following criteria: • 0: no evidence of erythema and swelling; • 1: erythema and mild swelling confirmed to the tarsals or ankle joint; • 2: erythema and mild swelling extending from the ankle to the tarsal joints; • 3: erythema and moderate swelling extending from the ankle to metatarsal joints; and • 4: erythema and severe swelling encompass the ankle, foot and digits, or ankylosis of the limb.
The score of each paw was summed for a score of 0-16 for each mouse. Mice were then sacrificed and hind paws were removed and freshly frozen in liquid nitrogen and stored at −80° C. until used.

mPGES-1 = mPGES-1 protein expression in hind paws of CIA DBA/1 mice; assay type: in vivo; conditions: SIN 100 mg/kg i.p. or MTX 10 mg/kg/week p.o.
Experimental: Female DBA/1 mice (8-9 weeks old) were purchased from Shanghai SiLaike (SLAC) Laboratory Animal Company (Shanghai, China) and fed with a chow diet and water at room temperature. Equal volume of complete Freuend's adjuvant (CFA) and Bovine Type II Collagen (CII) were mixed and emulsified using a homogenizer (13,000 rpm) on ice. On day 0, DBA/1 mice were immunized by injecting 50 μl of CII in CFA in the tail, approximately 2 cm from the base of the tail. […] The incidence of joint swelling in each group was recorded every two days since drug treatment. […]
Frozen paws were pulverized in liquid nitrogen using a stainless steel mortar and pestle, then re-suspended in 8 volumes of ice-cold PBS from Invitrogen (San Diego, Calif., USA) with 2.6 mM DTT from Promega (Madison, Wis., USA) and 2×Complete Protease Inhibitor mixture from Roche (Mannheim, Germany), and homogenized on ice bath using a tissue homogenizer from T25 digital, IKA (Stanfen, Germany) at 10,000 rpm/min for 5 min. […] The protein concentrations were measured using a Bio-Rad protein assay kit (Hercules, Calif., USA). […]
Whole-cell and nuclear proteins were obtained using RIPA lysis buffer (CST, Boston, Mass., USA) and Nuclear and Cytoplasmic Extraction Reagents kit from Thermo Scientific (Asheville, N.C., USA), respectively. […] The levels of protein expression were measured using Odyssey v3.0 software from Li-COR (Lincoln, Nebr., USA).

[2] = previous studies (Evans 1994; Werner et al. 1992); cited from earlier work

## CN(Cc1cnc2nc(N)nc(N)c2n1)c1ccc(C(=O)N[C@@H](CCC(=O)O)C(=O)O)cc1 [MTX, methotrexate, reference compound]
[1]
  arthritis in CIA mice: no observable effects
mPGES-1
  mPGES-1 protein expression in inflamed hind paws: no observable effects

## C[C@@H]1C[C@H]2[C@@H]3CCC4=CC(=O)C=C[C@]4(C)[C@@]3(F)[C@@H](O)C[C@]2(C)[C@@]1(O)C(=O)CO [DEX, Dexamethasone]
[2]
  cardiac side effects: faster heart rates, transient absolute myocardial hypertrophy and increase in systemic blood pressure
